Reference: patent US4153709A, “N-Heterocyclic ureas as immune regulants” (Eli Lilly and Company, priority 1977, dated 1979)

Tested on: antibody response to sheep blood cells (hemaglutination titer)
Assay: Immune regulating test: suppression of hemaglutination titer by 4-fold factor in mice (i.p. drug, i.p. sheep blood cells), Tables 1-15
Type: in vivo, Swiss mice
Settings: Mus musculus, ip, 192 h, × 3, intraperitoneal, minimum dose to suppress the hemaglutination titer by a 4-fold factor, 8 days after antigen, read-out: Immuno-Suppressant ED4-Fold
Method: The ability of compounds according to the above formulas to alter immune mechanisms in a host animal was measured by their activity according to the following test. Groups of five 20-gram Swiss mice were injected intraperitoneally with standardized suspensions of an antigen--in this instance sheep blook cells. […] Eight days after injection of the antigen, the mice were bled and the sera from each group pooled. Antibody determinations were made on the serum pools by a hemaglutination pattern procedure and comparisons made between treated and control animals. In Tables 1-18 which follow, the activity of the compounds listed therein is given in terms of the minimum dose of drug necessary to suppress the hemaglutination titer by a 4-fold factor in the treated mice as compared with control titers.

O=C(Nc1nc2c([N+](=O)[O-])cccc2[nH]1)Nc1ccccc1F [Table 6: 4(7), o-fluorophenyl]
minimal effective dose: 3.1 mg/kg

O=C(Nc1nc2ccccc2o1)Nc1cccc2ccccc12 [Table 11: α-naphthyl, H, O]
minimal effective dose: 50 mg/kg

Cc1cccc(NC(=O)Nc2nc3c(ccc4ccccc43)s2)c1 [Table 14: m-tolyl]
minimal effective dose: 3.1 mg/kg

O=C(Nc1cccc(C(F)(F)F)c1)Nc1nc2ccccc2[nH]1 [Table 1: m-trifluoromethylphenyl, H]
minimal effective dose: 100 mg/kg

O=C(Nc1nc2ccccc2[nH]1)Nc1ccccc1F [Table 1: o-fluorophenyl, H]
minimal effective dose: 1.6 mg/kg

O=C(Nc1ccc(F)cc1)Nc1nc2c(ccc3ccccc32)s1 [Table 14: p-fluorophenyl]
minimal effective dose: 12.5 mg/kg

COc1ccc2nc(NC(=O)Nc3ccccc3C)sc2c1 [Table 11: o-tolyl, 6-CH3 O, S]
minimal effective dose: < 50 mg/kg

CN(C(=O)Nc1cccc2ccccc12)c1nc2ccccc2[nH]1 [Table 7: α-naphthyl, H]
minimal effective dose: 25 mg/kg

Cc1cc2nc(NC(=O)Nc3cc(Cl)ccc3Cl)sc2cc1C
minimal effective dose: < 12.5 mg/kg

O=C(Nc1ccccc1)Nc1nc2ccc3ccccc3c2s1 [Table 15: phenyl]
minimal effective dose: 0.8 mg/kg

O=C(Nc1ccc(Br)cc1)Nc1nc2ccccc2[nH]1 [Table 1: p-bromophenyl, H]
minimal effective dose: 100 mg/kg

Cc1ccc2[nH]c(NC(=O)Nc3cccc4ccccc34)nc2c1 [Table 4: α-naphthyl, CH3]
minimal effective dose: < 0.4 mg/kg

O=C(Nc1ccc(F)cc1)Nc1nc2ccccc2[nH]1 [Table 1: p-fluorophenyl, H]
minimal effective dose: 6.2 mg/kg

O=C(Nc1ccc(Cl)c(Cl)c1)Nc1nc2c(ccc3ccccc32)s1 [Table 14: 3,4-dichlorophenyl]
minimal effective dose: 3.1 mg/kg

Cc1ccccc1NC(=O)Nc1nc2cc(Cl)ccc2[nH]1 [Table 2: o-tolyl]
minimal effective dose: 100 mg/kg

O=C(Nc1ccccc1)Nc1nc2cc3ccccc3cc2[nH]1 [Table 9: phenyl]
minimal effective dose: 25 mg/kg

COc1ccccc1NC(=O)Nc1nc2ccccc2s1 [Table 11: o-anisyl, H, S]
minimal effective dose: 50 mg/kg

CCOC(=O)c1ccc2[nH]c(NC(=O)Nc3cccc(Cl)c3)nc2c1 [Table 3: m-chlorophenyl]
minimal effective dose: 50 mg/kg

O=C(Nc1ccc(Cl)cc1)Nc1nc2c(ccc3ccccc32)s1 [Table 14: p-chlorophenyl]
minimal effective dose: < 100 mg/kg

Cc1ccc2[nH]c(NC(=O)Nc3ccccc3)nc2c1 [Table 4: phenyl, CH3]
minimal effective dose: 100 mg/kg

Cc1ccc(NC(=O)Nc2nc3ccc4ccccc4c3s2)cc1 [Table 15: p-tolyl]
minimal effective dose: > 25 mg/kg

O=C(Nc1nc2cc(Cl)ccc2o1)Nc1cccc2ccccc12 [Table 11: α-naphthyl, 5-Cl, O]
minimal effective dose: 200 mg/kg

Cc1ccc(NC(=O)Nc2nc3cc(Cl)ccc3[nH]2)cc1 [Table 2: p-tolyl]
minimal effective dose: 50 mg/kg

CCOC(=O)c1ccc2[nH]c(NC(=O)Nc3ccccc3C)nc2c1 [Table 3: o-tolyl]
minimal effective dose: 25 mg/kg

Cc1cc2nc(NC(=O)Nc3ccc(F)cc3)sc2cc1C
minimal effective dose: 12.5 mg/kg

O=C(Nc1cccc(Cl)c1)Nc1nc2ccccc2[nH]1 [Table 1: m-chlorophenyl, H]
minimal effective dose: 3.1 mg/kg

Cc1cc2nc(NC(=O)Nc3ccccc3)[nH]c2cc1C [Table 5: phenyl, CH3, CH3]
minimal effective dose: 12.5 mg/kg

Cn1c(NC(=O)Nc2ccc(Cl)cc2)nc2ccccc21 [Table 8: p-chlorophenyl, methyl]
minimal effective dose: > 50 mg/kg

CCOc1ccccc1NC(=O)Nc1nc2ccccc2s1 [Table 11: o-ethoxyphenyl, H, S]
minimal effective dose: < 50 mg/kg

O=C(Nc1ccc(Cl)c(Cl)c1)Nc1nc2ccccc2[nH]1 [Table 1: 3,4-dichlorophenyl, H]
minimal effective dose: 0.8 mg/kg

Cc1ccc(NC(=O)Nc2nc3cc(C)c(C)cc3s2)cc1 [Table 11: p-tolyl, 5,6-dimethyl, S]
minimal effective dose: 100 mg/kg

O=C(Nc1cccc(Cl)c1)Nc1nc2ccccc2s1 [Table 11: m-chlorophenyl, H, S]
minimal effective dose: 1.6 mg/kg

CCOC(=O)c1ccc2[nH]c(NC(=O)Nc3ccc(Cl)cc3)nc2c1 [Table 3: p-chlorophenyl]
minimal effective dose: 50 mg/kg

COc1ccc(NC(=O)Nc2nc3cc(C)c(C)cc3[nH]2)cc1 [Table 5: p-anisyl, CH3, CH3]
minimal effective dose: 12.5 mg/kg

Cc1ccc(NC(=O)Nc2nc3cc(C)c(C)cc3[nH]2)cc1 [Table 5: p-tolyl, CH3, CH3]
minimal effective dose: 3 mg/kg

O=C(Nc1cccc(Cl)c1)Nc1nc2c(ccc3ccccc32)s1 [Table 14: m-chlorophenyl]
minimal effective dose: < 1.6 mg/kg

O=C(Nc1ccccc1)Nc1nc2cc(Cl)ccc2o1 [Table 11: phenyl, 5-Cl, O]
minimal effective dose: 200 mg/kg

CN(C(=O)Nc1ccccc1)c1nc2ccccc2s1 [Table 12: phenyl]
minimal effective dose: 50 mg/kg

O=C(Nc1nc2cc(Cl)c(Cl)cc2[nH]1)Nc1cccc2ccccc12 [Table 5: α-naphthyl, Cl, Cl]
minimal effective dose: > 12.5 mg/kg

CCOC(=O)c1ccc2[nH]c(NC(=O)Nc3ccccc3F)nc2c1 [Table 3: o-fluorophenyl]
minimal effective dose: < 6.2 mg/kg

Cc1cc2nc(NC(=O)Nc3ccc(Cl)c(Cl)c3)[nH]c2cc1C [Table 5: 3,4-dichlorophenyl, CH3, CH3]
minimal effective dose: 100 mg/kg

COc1ccc2nc(NC(=O)Nc3cccc(Cl)c3)sc2c1 [Table 11: m-chlorophenyl, 6-CH3 O, S]
minimal effective dose: 12.5 mg/kg

O=C(Nc1ccc(Cl)cc1)Nc1nc2cc(Cl)ccc2[nH]1 [Table 2: p-chlorophenyl]
minimal effective dose: 6.2 mg/kg

O=C(Nc1nc2c(ccc3ccccc32)[nH]1)Nc1cccc2ccccc12 [Table 10: α-naphthyl]
minimal effective dose: > 6.2 mg/kg

O=C(Nc1ccccc1)Nc1nc2cc(Cl)c(Cl)cc2[nH]1 [Table 5: phenyl, Cl, Cl]
minimal effective dose: 12.5 mg/kg

Cc1cc2nc(NC(=O)Nc3ccc(F)cc3F)[nH]c2cc1C [Table 5: 2,4-difluorophenyl, CH3, CH3]
minimal effective dose: 0.4 mg/kg

O=C(Nc1cccc(Cl)c1)Nc1nc2cc(C(F)(F)F)ccc2[nH]1 [Table 4: am-chlorophenyl, CF3]
minimal effective dose: 50 to 200 mg/kg

Cc1cc2nc(NC(=O)Nc3ccccc3F)sc2cc1C
minimal effective dose: < 1.6 mg/kg

CN(C(=O)Nc1ccc(Cl)cc1)c1nc2ccccc2[nH]1 [Table 7: p-chlorophenyl, H]
minimal effective dose: 50 mg/kg

CCOC(=O)c1ccc2[nH]c(NC(=O)Nc3ccc(C)cc3)nc2c1 [Table 3: p-tolyl]
minimal effective dose: 100 mg/kg

CCOC(=O)c1ccc2[nH]c(NC(=O)Nc3cccc(C)c3)nc2c1 [Table 3: m-tolyl]
minimal effective dose: < 12.5 mg/kg

Cc1cc2nc(NC(=O)Nc3ccc(Br)cc3)sc2cc1C [Table 11: p-bromophenyl, 5,6-dimethyl, S]
minimal effective dose: 100 mg/kg

O=C(Nc1cccc(Cl)c1)Nc1nc2c(ccc3ccccc32)[nH]1 [Table 10: m-chlorophenyl]
minimal effective dose: 0.05 mg/kg

Cc1cccc(NC(=O)Nc2nc3cc(C)c(C)cc3s2)c1 [Table 11: m-tolyl, 5,6-dimethyl, S]
minimal effective dose: 25 mg/kg

Cc1ccccc1NC(=O)Nc1nc2c(ccc3ccccc32)s1 [Table 14: o-tolyl]
minimal effective dose: < 1.6 mg/kg

O=C(Nc1ccc(Cl)cc1)Nc1nc2ccccc2s1 [Table 11: p-chlorophenyl, H, S]
minimal effective dose: < 6.2 mg/kg

O=C(Nc1nc2ccccc2s1)Nc1ccccc1F [Table 11: o-fluorophenyl, H, S]
minimal effective dose: < 6.2 mg/kg

Cc1cc2nc(NC(=O)Nc3cc(Cl)ccc3Cl)[nH]c2cc1C [Table 5: 2,5-dichlorophenyl, CH3, CH3]
minimal effective dose: < 25 mg/kg

O=C(Nc1ccc(Br)cc1)Nc1nc2ccccc2s1 [Table 11: p-bromophenyl, H, S]
minimal effective dose: 100 mg/kg

Cc1cc2nc(NC(=O)Nc3ccc(Br)cc3)[nH]c2cc1C [Table 5: p-bromophenyl, CH3, CH3]
minimal effective dose: 12.5 mg/kg

O=C(Nc1nc2cc(Cl)ccc2[nH]1)Nc1cccc2ccccc12 [Table 2: α-naphthyl]
minimal effective dose: 6.2 mg/kg

COc1ccc2nc(NC(=O)Nc3cccc(C)c3)sc2c1 [Table 11: m-tolyl, 6-CH3 O, S]
minimal effective dose: < 25 mg/kg

O=C(Nc1ccc(Cl)cc1)Nc1nc2ccccc2[nH]1 [Table 1: p-chlorophenyl, H]
minimal effective dose: 12.5 mg/kg

O=C(Nc1ccc(Br)cc1)Nc1nc2c(ccc3ccccc32)s1 [Table 14: p-bromophenyl]
minimal effective dose: < 50 mg/kg

Cc1cc2nc(NC(=O)Nc3ccccc3C)[nH]c2cc1C [Table 5: o-tolyl, CH3, CH3]
minimal effective dose: 12.5 mg/kg

Cc1ccc(NC(=O)Nc2nc3c(ccc4ccccc43)s2)cc1 [Table 14: p-tolyl]
minimal effective dose: 6.2 mg/kg

O=C(Nc1nc2cc3ccccc3cc2[nH]1)Nc1cccc2ccccc12 [Table 9: α-naphthyl]
minimal effective dose: 50 mg/kg

CCOC(=O)c1ccc2[nH]c(NC(=O)Nc3ccc(F)cc3)nc2c1 [Table 3: p-fluorophenyl]
minimal effective dose: 25 mg/kg

Cc1cc2nc(NC(=O)Nc3cccc4ccccc34)[nH]c2cc1C [Table 5: α-naphthyl, CH3, CH3]
minimal effective dose: 50 mg/kg

Cc1cc2nc(NC(=O)Nc3cccc4ccccc34)sc2cc1C [Table 11: α-naphthyl, 5,6-dimethyl, S]
minimal effective dose: 50 mg/kg

O=C(Nc1ccccc1)Nc1nc2ccccc2n1-c1ccccc1 [Table 8: phenyl, phenyl]
minimal effective dose: 50 mg/kg

Cn1c(NC(=O)Nc2cccc(Cl)c2)nc2ccccc21 [Table 8: m-chlorophenyl, methyl]
minimal effective dose: 6.2 mg/kg

O=C(Nc1ccccc1)Nc1nc2cc(Cl)ccc2[nH]1 [Table 2: phenyl]
minimal effective dose: 25 mg/kg

Cc1cccc(NC(=O)Nc2nc3cc(Cl)ccc3[nH]2)c1 [Table 2: m-tolyl]
minimal effective dose: 25 mg/kg

O=C(Nc1ccc(Br)cc1)Nc1nc2ccc3ccccc3c2s1 [Table 15: p-bromophenyl]
minimal effective dose: 50 mg/kg
